The record followed here is ChEMBL document CHEMBL3525934 (Drug Metab Dispos, 2013).

Common to all, as to type: ADME
Common to all, as to conditions: 0.5 h

The target of one data set is T1, Cytochrome P450 2A6 (Homo sapiens, UniProt P11509).
T1 sequence (P11509 whole entry): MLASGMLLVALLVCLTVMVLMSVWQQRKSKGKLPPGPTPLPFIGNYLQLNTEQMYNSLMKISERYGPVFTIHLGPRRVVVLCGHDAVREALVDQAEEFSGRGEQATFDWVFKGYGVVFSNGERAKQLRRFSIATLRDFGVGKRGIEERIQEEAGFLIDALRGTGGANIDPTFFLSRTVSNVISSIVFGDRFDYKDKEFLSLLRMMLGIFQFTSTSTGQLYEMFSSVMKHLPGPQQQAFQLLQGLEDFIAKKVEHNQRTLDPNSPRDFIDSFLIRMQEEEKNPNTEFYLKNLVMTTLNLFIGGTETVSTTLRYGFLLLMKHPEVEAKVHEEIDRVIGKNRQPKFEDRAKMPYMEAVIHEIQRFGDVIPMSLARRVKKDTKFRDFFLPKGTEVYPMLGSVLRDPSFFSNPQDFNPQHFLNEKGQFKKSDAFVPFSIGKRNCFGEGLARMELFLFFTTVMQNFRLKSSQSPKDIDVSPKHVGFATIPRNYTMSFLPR
Put plainly: Drug metabolism in supersomes expressing human recombinant CYP2A6 assessed as enzyme-mediated cyanide adduct formation at 100 uM after 30 mins measured per nmol of P450 by HPLC analysis in presence of KCN.

Another data set addresses T2, Cytochrome P450 2C8 (Homo sapiens, UniProt P10632).
T2 sequence (P10632 whole entry): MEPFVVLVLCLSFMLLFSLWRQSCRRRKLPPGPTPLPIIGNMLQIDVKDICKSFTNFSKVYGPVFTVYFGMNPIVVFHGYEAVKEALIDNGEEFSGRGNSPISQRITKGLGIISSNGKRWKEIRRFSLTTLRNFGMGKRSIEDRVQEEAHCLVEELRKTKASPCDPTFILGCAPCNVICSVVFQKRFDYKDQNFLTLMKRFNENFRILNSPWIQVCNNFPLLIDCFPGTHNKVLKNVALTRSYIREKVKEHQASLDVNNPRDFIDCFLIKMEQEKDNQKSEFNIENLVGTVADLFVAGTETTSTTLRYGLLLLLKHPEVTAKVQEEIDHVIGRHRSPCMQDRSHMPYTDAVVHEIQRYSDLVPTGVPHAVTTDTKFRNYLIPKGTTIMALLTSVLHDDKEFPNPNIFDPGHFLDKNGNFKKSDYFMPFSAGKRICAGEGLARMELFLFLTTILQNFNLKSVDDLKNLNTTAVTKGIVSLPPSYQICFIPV
Put plainly: Drug metabolism in supersomes expressing human recombinant CYP2C8 assessed as enzyme-mediated clozapine-N-oxide metabolite formation at 10 uM after 30 mins measured per nmol of P450 by HPLC analysis.

A further data set addresses T3, Cytochrome P450 1A1 (Homo sapiens, UniProt P04798).
T3 sequence (P04798 whole entry): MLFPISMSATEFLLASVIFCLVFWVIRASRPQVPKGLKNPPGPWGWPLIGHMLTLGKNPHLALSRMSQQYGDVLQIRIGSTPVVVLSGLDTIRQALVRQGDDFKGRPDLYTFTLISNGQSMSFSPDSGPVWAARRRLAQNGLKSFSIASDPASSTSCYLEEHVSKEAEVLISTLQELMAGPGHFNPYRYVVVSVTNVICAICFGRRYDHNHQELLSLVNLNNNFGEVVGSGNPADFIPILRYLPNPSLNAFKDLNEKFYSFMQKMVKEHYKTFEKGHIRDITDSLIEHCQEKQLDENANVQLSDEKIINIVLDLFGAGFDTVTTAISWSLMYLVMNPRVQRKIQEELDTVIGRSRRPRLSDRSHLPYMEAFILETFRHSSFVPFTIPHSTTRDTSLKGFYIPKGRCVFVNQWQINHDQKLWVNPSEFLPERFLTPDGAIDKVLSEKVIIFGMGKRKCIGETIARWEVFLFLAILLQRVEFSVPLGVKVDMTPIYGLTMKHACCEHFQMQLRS
Put plainly: Drug metabolism in supersomes expressing human recombinant CYP1A1 assessed as enzyme-mediated total GSH conjugate formation at 100 uM after 30 mins measured per nmol of P450 by HPLC analysis in presence of GSH and hGST P1-1.

The target in another data set is T4, Cytochrome P450 1B1 (Homo sapiens, UniProt Q16678).
T4 sequence (Q16678 whole entry): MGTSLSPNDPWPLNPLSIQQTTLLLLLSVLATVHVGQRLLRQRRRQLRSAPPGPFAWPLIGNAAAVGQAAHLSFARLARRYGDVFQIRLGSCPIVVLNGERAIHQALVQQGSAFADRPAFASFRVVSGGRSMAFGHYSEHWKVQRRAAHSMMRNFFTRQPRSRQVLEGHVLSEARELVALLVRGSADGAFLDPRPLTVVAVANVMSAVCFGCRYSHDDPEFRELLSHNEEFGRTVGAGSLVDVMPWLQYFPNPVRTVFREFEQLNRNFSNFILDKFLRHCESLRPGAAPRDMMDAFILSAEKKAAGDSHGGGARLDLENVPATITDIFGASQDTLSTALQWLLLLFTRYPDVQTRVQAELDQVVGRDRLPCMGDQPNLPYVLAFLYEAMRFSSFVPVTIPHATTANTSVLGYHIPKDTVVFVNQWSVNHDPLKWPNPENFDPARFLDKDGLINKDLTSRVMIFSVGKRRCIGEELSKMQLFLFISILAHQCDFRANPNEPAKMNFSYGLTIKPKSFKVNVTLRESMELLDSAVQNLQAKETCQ
Put plainly: Drug metabolism in supersomes expressing human recombinant CYP1B1 assessed as enzyme-mediated clozapine-N-oxide metabolite formation at 10 uM after 30 mins measured per nmol of P450 by HPLC analysis.

A further data set has as its target Cytochrome P450 2C9 (Homo sapiens, UniProt P11712). Put plainly: Drug metabolism in supersomes expressing human recombinant CYP2C9 assessed as enzyme-mediated cyanide adduct formation at 100 uM after 30 mins measured per nmol of P450 by HPLC analysis in presence of KCN.
The target in data set [1] is T5, Cytochrome P450 2C19 (Homo sapiens, UniProt P33261). Put plainly: Drug metabolism in supersomes expressing human recombinant CYP2C19 assessed as enzyme-mediated clozapine-N-oxide metabolite formation at 100 uM after 30 mins measured per nmol of P450 by HPLC analysis.
T5 sequence (P33261 whole entry): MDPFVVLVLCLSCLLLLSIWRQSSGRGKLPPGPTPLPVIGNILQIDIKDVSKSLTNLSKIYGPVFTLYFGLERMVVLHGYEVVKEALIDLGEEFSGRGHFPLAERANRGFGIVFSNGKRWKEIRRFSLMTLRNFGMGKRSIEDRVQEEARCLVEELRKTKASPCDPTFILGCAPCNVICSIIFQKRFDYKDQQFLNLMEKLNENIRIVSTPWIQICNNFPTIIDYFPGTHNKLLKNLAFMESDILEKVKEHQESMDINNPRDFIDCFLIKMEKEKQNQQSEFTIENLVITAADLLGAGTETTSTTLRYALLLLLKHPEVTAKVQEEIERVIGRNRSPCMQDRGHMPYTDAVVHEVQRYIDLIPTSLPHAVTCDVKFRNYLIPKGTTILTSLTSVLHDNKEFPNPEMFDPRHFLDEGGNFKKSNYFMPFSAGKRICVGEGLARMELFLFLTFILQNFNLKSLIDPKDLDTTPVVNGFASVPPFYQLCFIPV
Data set [2] has as its target T5, Cytochrome P450 2C19. Put plainly: Drug metabolism in supersomes expressing human recombinant CYP2C19 assessed as enzyme-mediated N-desmethylclozapine metabolite formation at 10 uM after 30 mins measured per nmol of P450 by HPLC analysis.

Chain of Cytochrome P450 2C9 (P11712 whole entry): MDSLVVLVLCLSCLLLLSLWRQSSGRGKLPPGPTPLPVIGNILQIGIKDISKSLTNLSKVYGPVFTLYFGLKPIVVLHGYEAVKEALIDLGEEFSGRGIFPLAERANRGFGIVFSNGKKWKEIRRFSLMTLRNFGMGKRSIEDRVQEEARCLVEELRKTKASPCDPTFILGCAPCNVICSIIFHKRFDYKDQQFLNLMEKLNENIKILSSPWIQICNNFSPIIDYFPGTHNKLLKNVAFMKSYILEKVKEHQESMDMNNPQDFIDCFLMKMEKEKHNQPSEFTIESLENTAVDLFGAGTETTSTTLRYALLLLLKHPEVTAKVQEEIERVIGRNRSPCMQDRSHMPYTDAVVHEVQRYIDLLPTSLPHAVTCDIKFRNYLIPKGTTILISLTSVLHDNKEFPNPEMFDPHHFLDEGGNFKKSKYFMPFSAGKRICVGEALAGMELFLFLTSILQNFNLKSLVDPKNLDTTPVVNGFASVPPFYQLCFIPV

With `CN1CCN(C2=Nc3cc(Cl)ccc3Nc3ccccc32)CC1` [CLOZAPINE], the Drug metabolism on Cytochrome P450 2A6 came out at 0.17 nmol/min; at Cytochrome P450 2C8 it was 0.1 nmol/min; on Cytochrome P450 1A1, 0.32 nmol/min; at Cytochrome P450 1B1 it was 0.84 nmol/min; at Cytochrome P450 2C9, 0.01 nmol/min; on Cytochrome P450 2C19 [1] it was 0.58 nmol/min/nmol P450. The Drug metabolism at Cytochrome P450 2C19 [2] is 6.62 nmol/min/nmol P450.
